# Source: patent US9879043B1, “Synthesis of non-natural cofactor analogs of S-adenosyl-L-methionine using methionine adenosyltransferase” (University of Kentucky Research Foundation, priority 2013, dated 2018)
# Columns and labels:
# Format in all cases: biochemical
# [1] = target: Escherichia coli MAT (eMAT) (Escherichia coli, UniProt P0A817); assay: MAT assay, turnover of S/Se-Met analogs to S(Se)AM analogs (RP-HPLC end point); conditions: 2 mM Met analog, 1 mM ATP, 5 μM MAT, pH 8, 4 h, 37° C., average of two assays
# [2] = target: human MAT I catalytic subunit alpha (hMAT1A) (Homo sapiens, UniProt Q00266); assay: as above; conditions: 2 mM Met analog, 1 mM ATP, 5 μM MAT, pH 8, 4 h, 37° C.; average of two assays
# [3] = target: human MAT II catalytic alpha and regulatory beta subunit (hMAT2) (Homo sapiens, UniProt P31153); assay: as above; conditions: 2 mM Met analog, 1 mM ATP, 5 μM MAT, pH 8, 4 h, 37° C.; average of two assays
# [4] = target: human MAT II catalytic alpha subunit alone (hMAT2A) (Homo sapiens, UniProt P31153); assay: as above; conditions: 2 mM Met analog, 1 mM ATP, 5 μM MAT, pH 8, 4 h, 37° C., average of two assays
# [5] = target: T1, Methanocaldococcus jannaschii MAT (mMAT) (Methanocaldococcus jannaschii, UniProt Q58605); conditions: 2 mM Met analog, 1 mM ATP, 5 μM MAT, pH 8, 4 h, 65° C.; average of two assays
# T1 sequence (Q58605 1-406): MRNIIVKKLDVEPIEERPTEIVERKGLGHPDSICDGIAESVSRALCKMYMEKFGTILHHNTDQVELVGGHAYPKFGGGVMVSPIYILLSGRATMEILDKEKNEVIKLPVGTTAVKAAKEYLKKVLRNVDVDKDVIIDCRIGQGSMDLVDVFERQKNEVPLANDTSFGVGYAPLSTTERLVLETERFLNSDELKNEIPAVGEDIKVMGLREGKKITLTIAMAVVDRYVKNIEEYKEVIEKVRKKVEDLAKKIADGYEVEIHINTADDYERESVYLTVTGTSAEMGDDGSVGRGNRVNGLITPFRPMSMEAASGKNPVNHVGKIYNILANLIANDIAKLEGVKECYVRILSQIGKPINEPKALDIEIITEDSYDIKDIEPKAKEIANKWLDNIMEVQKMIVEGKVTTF
structure (smiles),measurement,setting,value
"CCSCC[C@H](N)C(=O)O [compound 3, (2S)-2-amino-4-(ethylsulfanyl)butanoic acid]",Percentage Turn-over eMAT,[1],8%
same,Percentage Turn-over eMAT,[1]; listed as ethionine,10%
same,Percentage Turn-over hMAT1A,[2],75%
same,Percentage Turn-over hMAT2,[3],88%
same,Percentage Turn-over hMAT2A,[4],90%
same,Percentage Turn-over hMAT2A,[4]; listed as ethionine,~100%
same,Percentage Turn-over mMAT,[5],94%
